Measured values published in patent US20190307726A1, “PHARMACEUTICAL FORMULATIONS” (Molecular Defenses Corporation, priority 2015, published 2019).

Key:
wild type DHB4 E. coli = settings: cited from earlier work
gshA- DHB4 E. coli = settings: cited from earlier work
Gor- DHB4 E. coli = settings: cited from earlier work
[1] = 30 μM compound, 0.5 mM GSH, 0.5 mM H2O2, NADPH consumption; cited from earlier work
HEK 293T cells = settings: 24 h incubation, XTT; cited from earlier work
recombinant rat TrxR = target: T1, recombinant rat TrxR (Rattus norvegicus, UniProt O89049); settings: cited from earlier work
T1 sequence (O89049 1-499): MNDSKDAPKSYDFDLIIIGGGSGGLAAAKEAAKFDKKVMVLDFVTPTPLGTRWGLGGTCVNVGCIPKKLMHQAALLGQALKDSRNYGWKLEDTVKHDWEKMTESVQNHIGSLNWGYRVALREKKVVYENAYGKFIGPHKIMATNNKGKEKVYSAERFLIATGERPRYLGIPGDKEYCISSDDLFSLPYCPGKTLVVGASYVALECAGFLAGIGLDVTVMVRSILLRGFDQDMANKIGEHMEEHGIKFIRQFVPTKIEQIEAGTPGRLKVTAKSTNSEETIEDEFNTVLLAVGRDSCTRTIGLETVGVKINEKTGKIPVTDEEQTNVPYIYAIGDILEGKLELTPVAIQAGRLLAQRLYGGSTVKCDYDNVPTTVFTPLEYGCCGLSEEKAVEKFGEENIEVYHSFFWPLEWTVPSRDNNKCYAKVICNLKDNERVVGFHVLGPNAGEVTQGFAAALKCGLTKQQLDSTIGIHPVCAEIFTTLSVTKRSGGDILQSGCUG

E. coli Trx = E. coli Trx (Escherichia coli, UniProt P0AA25); assay: Oxidation of reduced E. coli Trx-(SH)2, fluorescence spectroscopy; format: biochemical
Excerpt: Oxidation E. coli Trx-(SH)2 by ebselen derivatives. Oxidant property of benzisoselenazol-3(2H)-one derivatives on reduced E. coli Trx-(SH)2 were studied by fluorescence spectroscopy.

[2] = system: MDR Mycobacterium tuberculosis; assay: Sensitivity of Mycobacterium tuberculosis to ebselen, radiometric BACTEC 460 system; format: cell-based; settings: medium with 5 g/l albumin; dependent upon albumin saturation
Staphylococcus aureus = settings: cited from earlier work
E. coli TrxR = E. coli TrxR (Escherichia coli, UniProt P0A9P4); settings: cited from earlier work
Sequence of E. coli TrxR (P0A9P4 2-321): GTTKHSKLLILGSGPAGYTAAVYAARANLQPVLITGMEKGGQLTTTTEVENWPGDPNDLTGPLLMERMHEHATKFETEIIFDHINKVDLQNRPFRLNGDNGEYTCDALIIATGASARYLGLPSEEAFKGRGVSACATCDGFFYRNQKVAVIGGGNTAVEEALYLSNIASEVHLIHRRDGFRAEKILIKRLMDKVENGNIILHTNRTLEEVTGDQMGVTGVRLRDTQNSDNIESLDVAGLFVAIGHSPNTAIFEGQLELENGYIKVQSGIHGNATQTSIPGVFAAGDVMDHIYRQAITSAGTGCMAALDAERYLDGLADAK

Sequence of E. coli Trx (P0AA25 whole entry): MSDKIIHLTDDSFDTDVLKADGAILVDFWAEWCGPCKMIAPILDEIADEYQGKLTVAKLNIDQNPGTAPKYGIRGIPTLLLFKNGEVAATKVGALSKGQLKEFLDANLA

Row | Structure (SMILES) | MIC for wild type DHB4 E. coli (wild type DHB4 E. coli) | MIC for gshA- DHB4 E. coli (gshA- DHB4 E. coli) | MIC for Gor- DHB4 E. coli (Gor- DHB4 E. coli) | also measured
1 | O=C(O)c1ccccc1-n1[se]c2ccccc2c1=O [EbSe 9] | 49 µM | 24 µM | 31 µM | –
2 | O=c1c2ccccc2[se]n1-c1ncccc1[N+](=O)[O-] [EbSe 12] | No Inh. | No Inh. | No Inh. | Relative GPx activity [1]: 0.93; IC50 (HEK 293T cells): 80 µM
3 | CC(C)(C)n1[se]c2ccccc2c1=O [EbSe 4] | – | – | – | inhibition of mammalian TrxR (in words) (recombinant rat TrxR): some activity to inhibit mammalian TrxR
4 | O=c1c2ccccc2[se]n1-c1ccccc1 [EbSe 6, 2-phenyl-1,2-benzisoselenazol-3(2H)-one] | 40 µM | 26 µM | 15 µM | second-order rate constant, reduction by reduced E. coli Trx (E. coli Trx): 2e+07 M⁻¹ s⁻¹; MIC, Mycobacterium tuberculosis [2]: lower than 20 mg/I; difference in sensitivity, Staphyloccus aureus versus E. coli (Staphylococcus aureus): 100 fold; concentration inhibiting growth of methicillin resistant Staphylococcus aureus (Staphylococcus aureus; methicillin resistant Staphylococcus aureus): 0.20 μg per ml; concentration inhibiting growth of Staphylococcus aureus 209P (Staphylococcus aureus; strain 209P): 0.20 µg/mL
5 | O=c1c2ccccc2[se]n1-c1ccc(Cl)cc1 [EbSe 7] | 34 µM | 20 µM | 23 µM | –
6 | O=c1c2ccccc2[se]n1CCn1[se]c2ccccc2c1=O [EbSe 14] | 23 µM | 23 µM | 19 µM | Relative GPx activity [1]: No activity
7 | O=C(Nc1ccccc1)c1ccccc1[Se][Se]c1ccccc1C(=O)Nc1ccccc1 [ebselen diselenide] | – | – | – | second-order rate constant, reduction by reduced E. coli Trx (E. coli Trx): 1700 M⁻¹ s⁻¹
8 | O=c1c2ccccc2[se]n1CCCCCCn1[se]c2ccccc2c1=O [EbSe 16] | 20 µM | 20 µM | 35 µM | –
9 | Cc1cc(Cl)ccc1-n1[se]c2ccccc2c1=O [EbSe 8] | 47 µM | 13 µM | 24 µM | –
10 | CCOC(=O)c1cccnc1[Se]Nc1ccc(Cl)cn1 [compound 2] | No Inh. | No Inh. | No Inh. | –
11 | O=c1c2ccccc2[se]n1-c1ccc(Cl)cn1 [EbSe 11] | No Inh. | No Inh. | No Inh. | IC50 (E. coli TrxR; read-out: IC50 for E. coli TrxR, 100 nM TrxR, 2 μM Trx, 240 μM NADPH, 1 mM DTNB): > 40 µM; Ki (E. coli TrxR; read-out: Ki for E. coli TrxR, Dixon plot, 6 nM TrxR, Trx 1, 2 or 4 μM): 0.3 µM; Relative GPx activity [1]: 0.87; IC50 (HEK 293T cells): > 160 µM
12 | O=c1c2ccccc2[se]n1-c1ccncc1 [EbSe 13] | 45 µM | 21 µM | 24 µM | –
